Values quoted from earlier work as cited in patent publication US9566245B2, “Osmotic drug delivery system” (Supernus Pharmaceuticals, Inc., priority 2006, dated 2017).

Settings: treprostinil as the free acid

In the case of `CCCCC[C@H](O)CC[C@@H]1[C@H]2Cc3cccc(OCC(=O)O)c3C[C@H]2C[C@H]1O` [treprostinil], the Absolute oral bioavailability is given as “less than 10%”.
